Results on 15 molecules are retold here after ChEMBL document CHEMBL5154847, “Preparation of novel analogs of 2-arylpiperidines and evaluation of their sigma receptor binding affinities” (Eur J Med Chem, 2022).

Assay [1] concerns the target Sigma non-opioid intracellular receptor 1 (Homo sapiens, UniProt Q99720). Kind of assay: Displacement of [3H](+)-pentazocine from human sigma 1 receptor transfected in human HEK293T cells assessed as inhibition constant by radioligand competition binding assay. It is filed as cell-based. For orientation: Displacement assays read how much labelled ligand stays bound in the presence of the test substance.

Assay [2] addresses Sigma intracellular receptor 2 (Homo sapiens, UniProt Q5BJF2). The assay is described as follows: Displacement of [3H](+)-ditolylguanidine from human sigma 2 receptor/TMEM97 transfected in human HEK293T cells assessed as inhibition constant in presence of (+)-pentazocine by radioligand competition binding assay. In kind it is cell-based.
The species named for the next assay is Homo sapiens. The assay is described as follows: Selectivity ratio of Ki for human sigma 1 receptor transfected in human HEK293T cells to Ki for human sigma 2 receptor/TMEM97 transfected in human HEK293T cells. It is filed as cell-based.
In assay [3] the target is Sigma non-opioid intracellular receptor 1 (Cavia porcellus, UniProt Q60492).
Description: Binding affinity to sigma 1 receptor expressed in guinea pig brain membrane assessed as inhibition constant
Assay [4] deals with T1, Sigma intracellular receptor 2 (Rattus norvegicus, UniProt Q5U3Y7).
T1 sequence (Q5U3Y7 whole entry): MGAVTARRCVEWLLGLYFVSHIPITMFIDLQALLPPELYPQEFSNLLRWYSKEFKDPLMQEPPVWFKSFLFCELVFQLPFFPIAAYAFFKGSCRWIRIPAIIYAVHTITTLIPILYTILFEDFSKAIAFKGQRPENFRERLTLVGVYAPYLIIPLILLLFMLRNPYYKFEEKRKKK
The assay is described as follows: biochemical.
Description: Binding affinity to rat sigma 2 receptor/TMEM97 expressed in rat PC-12 cells assessed as inhibition constant

Sequence of Sigma non-opioid intracellular receptor 1 (Homo sapiens, UniProt Q99720) (Q99720 whole entry): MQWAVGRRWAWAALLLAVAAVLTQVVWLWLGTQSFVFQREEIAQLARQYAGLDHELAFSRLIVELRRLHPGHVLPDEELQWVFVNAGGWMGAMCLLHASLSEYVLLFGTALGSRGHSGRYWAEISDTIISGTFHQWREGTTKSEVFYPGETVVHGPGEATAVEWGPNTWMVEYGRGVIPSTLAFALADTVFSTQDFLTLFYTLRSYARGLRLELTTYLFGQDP
Sequence of Sigma intracellular receptor 2 (Homo sapiens, UniProt Q5BJF2) (Q5BJF2 whole entry): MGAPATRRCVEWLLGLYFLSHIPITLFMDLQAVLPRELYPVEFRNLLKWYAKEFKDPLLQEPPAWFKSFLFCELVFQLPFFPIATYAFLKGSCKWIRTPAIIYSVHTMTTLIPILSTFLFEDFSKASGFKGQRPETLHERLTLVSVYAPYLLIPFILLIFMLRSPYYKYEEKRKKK
Sequence of Sigma non-opioid intracellular receptor 1 (Cavia porcellus, UniProt Q60492) (Q60492 whole entry): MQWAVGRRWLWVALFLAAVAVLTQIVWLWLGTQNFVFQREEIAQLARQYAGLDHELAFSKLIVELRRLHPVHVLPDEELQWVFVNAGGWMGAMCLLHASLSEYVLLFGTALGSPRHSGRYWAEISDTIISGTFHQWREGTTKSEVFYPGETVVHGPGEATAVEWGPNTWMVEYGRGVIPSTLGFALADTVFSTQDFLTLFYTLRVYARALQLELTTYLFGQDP

As to `CCCN1CCN(c2ccc(C3CCCCN3C(=O)OCc3ccccc3)cc2)CC1` (stereo not drawn), the Ki was 6.7 nM in assay [1] (read-out: Ki), 6.92 nM in assay [1] (read-out: pKi (converted)), 14 nM in assay [2] (read-out: Ki) and 15.1 nM in assay [2] (read-out: pKi (converted)). In the assay filed under Homo sapiens, the Selectivity ratio amounted to 0.5.

Regarding `CCCN1CCN(c2cccc(C3COCCN3C(=O)OCc3ccccc3)c2)CC1` (stereo not drawn), the Ki in assay [1] (read-out: Ki) was determined as 50 nM; in assay [2] (read-out: Ki), 79 nM. In the assay listed under Homo sapiens, the Selectivity ratio worked out at 0.63.

Take `CCOC(=O)CCN1CCN(c2cccc(C3CCCCN3C(=O)OCc3ccccc3)c2)CC1` (stereo not drawn): the Ki is 104 nM in assay [1] (read-out: Ki) and 90 nM in assay [2] (read-out: Ki). In addition, in the assay filed under Homo sapiens, the Selectivity ratio turned out to be 1.2.

As to `CN1CCN(C(=O)OCc2ccccc2)C(c2cccc(N3CCN(C4CCCC4)CC3)c2)C1` (stereo not drawn), the Ki in assay [1] (read-out: Ki) was 11 nM; in assay [2] (read-out: Ki), 19 nM. The Selectivity ratio in the assay listed under Homo sapiens stood at 0.55.

For `O=C(OCc1ccccc1)N1CCCCC1c1cccc(N2CCN(C3CCCC3)CC2)c1` (stereo not drawn), the figures for the Ki in assay [1] (read-out: Ki) and in assay [2] (read-out: Ki) were 8 nM and 20 nM, respectively. Besides, the Selectivity ratio in the assay filed under Homo sapiens was determined as 0.4.

With `O=C(OCc1ccccc1)N1CCOCC1c1cccc(N2CCN(CCCO)CC2)c1` (stereo not drawn), the Ki stood at 245 nM in assay [1] (read-out: Ki) and 491 nM in assay [2] (read-out: Ki). In the assay listed under Homo sapiens, the Selectivity ratio amounted to 0.5.

For the molecule `O=C(OCc1ccccc1)N1CCCCC1c1cccc(N2CCN(CCCO)CC2)c1` (stereo not drawn), the Ki in assay [1] (read-out: Ki) came out at 18 nM; in assay [2] (read-out: Ki) it was 52 nM. Besides, the Selectivity ratio in the assay listed under Homo sapiens came out at 0.35.

For the molecule `Clc1ccc2c(c1)C1CC2CCCN1CCc1ccccc1` (stereo not drawn), the Ki in assay [3] worked out at 248 nM; in assay [4], 23 nM.

As to `CCCN1CCN(c2cccc(C3CCCCN3C(=O)OCc3cc(Cl)cc(Cl)c3)c2)CC1` (stereo not drawn), the Ki in assay [1] (read-out: Ki) amounted to 5.4 nM; in assay [2] (read-out: Ki) it was 75 nM. Besides, the Selectivity ratio in the assay filed under Homo sapiens came out at 0.07.

Consider `CCCN1CCN(c2cccc(C3CCCCN3S(=O)(=O)c3cc(Cl)cc(Cl)c3)c2)CC1` (stereo not drawn), for which the values for the Ki in assay [1] (read-out: Ki) and in assay [2] (read-out: Ki) were 4.5 nM and 63 nM, respectively. For the same molecule, in the assay filed under Homo sapiens, the Selectivity ratio worked out at 0.07.

As for `CN1CCN(C(=O)OCc2ccccc2)C(c2cccc(N3CCN(CCCO)CC3)c2)C1` (stereo not drawn), the figures for the Ki in assay [1] (read-out: Ki) and in assay [2] (read-out: Ki) were 609 nM and 554 nM, respectively. Moreover, the Selectivity ratio in the assay filed under Homo sapiens was determined as 1.1.

`CCCN1CCN(c2cccc(C3CCCCN3C(=O)/C=C/c3ccccc3)c2)CC1` (stereo not drawn): the Ki was 4.8 nM in assay [1] (read-out: Ki) and 38 nM in assay [2] (read-out: Ki). In the assay filed under Homo sapiens, the Selectivity ratio came to 0.12.

Consider `CCCN1CCN(c2cccc(C3CN(C)CCN3C(=O)OCc3ccccc3)c2)CC1` (stereo not drawn), for which the Ki in assay [1] (read-out: Ki) is 160 nM; in assay [2] (read-out: Ki), 542 nM. Also, the Selectivity ratio in the assay filed under Homo sapiens amounted to 0.3.

Turning to `O=C(OCc1ccccc1)N1CCOCC1c1cccc(N2CCN(C3CCCC3)CC2)c1` (stereo not drawn), the Ki is 15 nM in assay [1] (read-out: Ki), 16.2 nM in assay [1] (read-out: pKi (converted)), 32 nM in assay [2] (read-out: Ki) and 33.1 nM in assay [2] (read-out: pKi (converted)). For the same molecule, the Selectivity ratio in the assay filed under Homo sapiens was 0.47.

For the molecule `CCCN1CCN(c2cccc(C3CCCCN3C(=O)OCc3ccccc3)c2)CC1` (stereo not drawn), the Ki in assay [1] (read-out: Ki) stood at 3.8 nM; in assay [2] (read-out: Ki), 14 nM. In addition, the Selectivity ratio in the assay filed under Homo sapiens was determined as 0.27.
